{
  "source": "PubChem BioAssay AID1963445",
  "about": "(Molecular Pharmacology Branch, DTP, NCI, 2024)",
  "test_system": "MCF7 complex spheroid growth, % test/control",
  "assay": "Anticancer human tumor MCF7 cell line growth inhibition [Asc];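 note: spheroids exposed to compounds for 7 days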;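 for viability, T/C: 100% = DMSO vehicle control wells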",
  "conditions": "for IC50: curve of first compound; for viability, T/C: stronger effect = lower value",
  "in_short": "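Tumor cells were grown as multicellular spheroids with stromal HUVEC and mesenchymal stem cells and treated singly or in combination. Concentrations fell in half-log steps from the clinical Cmax, or from 10 microM where none was known.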",
  "key": {"[1]": {"conditions": "second compound 0.00949 µM, first compound 0.0316 µM"}, "[2]": {"conditions": "second compound 0.00949 µM, first compound 0.1 µM"}, "[3]": {"conditions": "second compound 0.00949 µM, first compound 0.316 µM"}, "[4]": {"conditions": "second compound 0.00949 µM, first compound 1 µM"}, "[5]": {"conditions": "second compound 0.03 µM, first compound 0.0316 µM"}, "[6]": {"conditions": "second compound 0.03 µM, first compound 0.1 µM"}, "[7]": {"conditions": "second compound 0.03 µM, first compound 0.316 µM"}, "[8]": {"conditions": "second compound 0.03 µM, first compound 1 µM"}, "[9]": {"conditions": "second compound 0.0949 µM, first compound 0.0316 µM"}, "[10]": {"conditions": "second compound 0.0949 µM, first compound 0.1 µM"}, "[11]": {"conditions": "second compound 0.0949 µM, first compound 0.316 µM"}, "[12]": {"conditions": "second compound 0.0949 µM, first compound 1 µM"}, "[13]": {"conditions": "second compound 0.3 µM, first compound 0.0316 µM"}, "[14]": {"conditions": "second compound 0.3 µM, first compound 0.1 µM"}, "[15]": {"conditions": "second compound 0.3 µM, first compound 0.316 µM"}, "[16]": {"conditions": "second compound 0.3 µM, first compound 1 µM"}, "[17]": {"conditions": "second compound 0.949 µM, first compound 0.0316 µM"}, "[18]": {"conditions": "second compound 0.949 µM, first compound 0.1 µM"}, "[19]": {"conditions": "second compound 0.949 µM, first compound 0.316 µM"}, "[20]": {"conditions": "second compound 0.949 µM, first compound 1 µM"}, "[21]": {"conditions": "second compound 3 µM, first compound 0.0316 µM"}, "[22]": {"conditions": "second compound 3 µM, first compound 0.1 µM"}, "[23]": {"conditions": "second compound 3 µM, first compound 0.316 µM"}, "[24]": {"conditions": "second compound 3 µM, first compound 1 µM"}},
  "data": [
    {"molecule": "C=CC(=O)N1CCN(c2nc(=O)n(-c3c(C)ccnc3C(C)C)c3nc(-c4c(O)cccc4F)c(F)cc23)C(C)C1", "note": "(centres undefined) + CCN1C(C(=O)NC23CCC(C(=O)O)(CC2)CC3)C(c2cccc(Cl)c2F)C2(C(=O)Nc3cc(Cl)ccc32)C12CCCCC2", "values": [
      {"measurement": "IC50", "setting": "second compound 0.00949 µM", "value": "> 10000", "unit": "nM"},
      {"measurement": "IC50", "setting": "second compound 0.03 µM", "value": "> 10000", "unit": "nM"},
      {"measurement": "IC50", "setting": "second compound 0.0949 µM", "value": 585, "unit": "nM"},
      {"measurement": "IC50", "setting": "second compound 0.3 µM", "value": "< 31.6", "unit": "nM"},
      {"measurement": "IC50", "setting": "second compound 0.949 µM", "value": "< 31.6", "unit": "nM"},
      {"measurement": "IC50", "setting": "second compound 3 µM", "value": "< 31.6", "unit": "nM"},
      {"measurement": "viability, T/C", "setting": "[1]", "value": 109, "unit": "%"},
      {"measurement": "viability, T/C", "setting": "[2]", "value": 104, "unit": "%"},
      {"measurement": "viability, T/C", "setting": "[3]", "value": 113, "unit": "%"},
      {"measurement": "viability, T/C", "setting": "[4]", "value": 107, "unit": "%"},
      {"measurement": "viability, T/C", "setting": "second compound 0.00949 µM, first compound 3.16 µM", "value": 113, "unit": "%"},
      {"measurement": "viability, T/C", "setting": "second compound 0.00949 µM, first compound 10 µM", "value": 91.1, "unit": "%"},
      {"measurement": "viability, T/C", "setting": "[5]", "value": 96.1, "unit": "%"},
      {"measurement": "viability, T/C", "setting": "[6]", "value": 93.7, "unit": "%"},
      {"measurement": "viability, T/C", "setting": "[7]", "value": 83.3, "unit": "%"},
      {"measurement": "viability, T/C", "setting": "[8]", "value": 68.2, "unit": "%"},
      {"measurement": "viability, T/C", "setting": "second compound 0.03 µM, first compound 3.16 µM", "value": 82.9, "unit": "%"},
      {"measurement": "viability, T/C", "setting": "second compound 0.03 µM, first compound 10 µM", "value": 59.8, "unit": "%"},
      {"measurement": "viability, T/C", "setting": "[9]", "value": 53.9, "unit": "%"},
      {"measurement": "viability, T/C", "setting": "[10]", "value": 56.4, "unit": "%"},
      {"measurement": "viability, T/C", "setting": "[11]", "value": 55.3, "unit": "%"},
      {"measurement": "viability, T/C", "setting": "[12]", "value": 42.5, "unit": "%"},
      {"measurement": "viability, T/C", "setting": "second compound 0.0949 µM, first compound 3.16 µM", "value": 45.7, "unit": "%"},
      {"measurement": "viability, T/C", "setting": "second compound 0.0949 µM, first compound 10 µM", "value": 35.5, "unit": "%"},
      {"measurement": "viability, T/C", "setting": "[13]", "value": 34.8, "unit": "%"},
      {"measurement": "viability, T/C", "setting": "[14]", "value": 33.5, "unit": "%"},
      {"measurement": "viability, T/C", "setting": "[15]", "value": 35.6, "unit": "%"},
      {"measurement": "viability, T/C", "setting": "[16]", "value": 33, "unit": "%"},
      {"measurement": "viability, T/C", "setting": "second compound 0.3 µM, first compound 3.16 µM", "value": 32, "unit": "%"},
      {"measurement": "viability, T/C", "setting": "second compound 0.3 µM, first compound 10 µM", "value": 32.6, "unit": "%"},
      {"measurement": "viability, T/C", "setting": "[17]", "value": 24.5, "unit": "%"},
      {"measurement": "viability, T/C", "setting": "[18]", "value": 23.1, "unit": "%"},
      {"measurement": "viability, T/C", "setting": "[19]", "value": 20.7, "unit": "%"},
      {"measurement": "viability, T/C", "setting": "[20]", "value": 25.2, "unit": "%"},
      {"measurement": "viability, T/C", "setting": "second compound 0.949 µM, first compound 3.16 µM", "value": 32.1, "unit": "%"},
      {"measurement": "viability, T/C", "setting": "second compound 0.949 µM, first compound 10 µM", "value": 21.4, "unit": "%"},
      {"measurement": "viability, T/C", "setting": "[21]", "value": 16.6, "unit": "%"},
      {"measurement": "viability, T/C", "setting": "[22]", "value": 17.1, "unit": "%"},
      {"measurement": "viability, T/C", "setting": "[23]", "value": 19.1, "unit": "%"},
      {"measurement": "viability, T/C", "setting": "[24]", "value": 18.3, "unit": "%"},
      {"measurement": "viability, T/C", "setting": "second compound 3 µM, first compound 3.16 µM", "value": 22.1, "unit": "%"},
      {"measurement": "viability, T/C", "setting": "second compound 3 µM, first compound 10 µM", "value": 24.2, "unit": "%"}
    ]},
    {"molecule": "CNC(C)C(=O)NC1CN(S(=O)(=O)c2cccc(S(=O)(=O)N3CCC4CCC(C(=O)NC(c5ccccc5)c5ccccc5)N4C(=O)C(NC(=O)C(C)NC)C3)c2)CCC2CCC(C(=O)NC(c3ccccc3)c3ccccc3)N2C1=O", "note": "(centres undefined) + CCN1C(C(=O)NC23CCC(C(=O)O)(CC2)CC3)C(c2cccc(Cl)c2F)C2(C(=O)Nc3cc(Cl)ccc32)C12CCCCC2", "values": [
      {"measurement": "IC50", "setting": "second compound 0.00949 µM", "value": 4.89, "unit": "nM"},
      {"measurement": "IC50", "setting": "second compound 0.03 µM", "value": 4.19, "unit": "nM"},
      {"measurement": "IC50", "setting": "second compound 0.0949 µM", "value": "< 3.16", "unit": "nM"},
      {"measurement": "IC50", "setting": "second compound 0.3 µM", "value": "< 3.16", "unit": "nM"},
      {"measurement": "IC50", "setting": "second compound 0.949 µM", "value": "< 3.16", "unit": "nM"},
      {"measurement": "IC50", "setting": "second compound 3 µM", "value": "< 3.16", "unit": "nM"},
      {"measurement": "viability, T/C", "setting": "second compound 0.00949 µM, first compound 0.00316 µM", "value": 69.8, "unit": "%"},
      {"measurement": "viability, T/C", "setting": "second compound 0.00949 µM, first compound 0.01 µM", "value": 17.4, "unit": "%"},
      {"measurement": "viability, T/C", "setting": "[1]", "value": 16.6, "unit": "%"},
      {"measurement": "viability, T/C", "setting": "[2]", "value": 14.7, "unit": "%"},
      {"measurement": "viability, T/C", "setting": "[3]", "value": 17.1, "unit": "%"},
      {"measurement": "viability, T/C", "setting": "[4]", "value": 15.5, "unit": "%"},
      {"measurement": "viability, T/C", "setting": "second compound 0.03 µM, first compound 0.00316 µM", "value": 61.2, "unit": "%"},
      {"measurement": "viability, T/C", "setting": "second compound 0.03 µM, first compound 0.01 µM", "value": 13.8, "unit": "%"},
      {"measurement": "viability, T/C", "setting": "[5]", "value": 13.1, "unit": "%"},
      {"measurement": "viability, T/C", "setting": "[6]", "value": 19, "unit": "%"},
      {"measurement": "viability, T/C", "setting": "[7]", "value": 15.5, "unit": "%"},
      {"measurement": "viability, T/C", "setting": "[8]", "value": 15.8, "unit": "%"},
      {"measurement": "viability, T/C", "setting": "second compound 0.0949 µM, first compound 0.00316 µM", "value": 32.7, "unit": "%"},
      {"measurement": "viability, T/C", "setting": "second compound 0.0949 µM, first compound 0.01 µM", "value": 8.77, "unit": "%"},
      {"measurement": "viability, T/C", "setting": "[9]", "value": 9.56, "unit": "%"},
      {"measurement": "viability, T/C", "setting": "[10]", "value": 11.9, "unit": "%"},
      {"measurement": "viability, T/C", "setting": "[11]", "value": 11.5, "unit": "%"},
      {"measurement": "viability, T/C", "setting": "[12]", "value": 16, "unit": "%"},
      {"measurement": "viability, T/C", "setting": "second compound 0.3 µM, first compound 0.00316 µM", "value": 15.1, "unit": "%"},
      {"measurement": "viability, T/C", "setting": "second compound 0.3 µM, first compound 0.01 µM", "value": 8.53, "unit": "%"},
      {"measurement": "viability, T/C", "setting": "[13]", "value": 9.64, "unit": "%"},
      {"measurement": "viability, T/C", "setting": "[14]", "value": 9.86, "unit": "%"},
      {"measurement": "viability, T/C", "setting": "[15]", "value": 11, "unit": "%"},
      {"measurement": "viability, T/C", "setting": "[16]", "value": 12.2, "unit": "%"},
      {"measurement": "viability, T/C", "setting": "second compound 0.949 µM, first compound 0.00316 µM", "value": 10.9, "unit": "%"},
      {"measurement": "viability, T/C", "setting": "second compound 0.949 µM, first compound 0.01 µM", "value": 10, "unit": "%"},
      {"measurement": "viability, T/C", "setting": "[17]", "value": 7.29, "unit": "%"},
      {"measurement": "viability, T/C", "setting": "[18]", "value": 8.83, "unit": "%"},
      {"measurement": "viability, T/C", "setting": "[19]", "value": 10.5, "unit": "%"},
      {"measurement": "viability, T/C", "setting": "[20]", "value": 12, "unit": "%"},
      {"measurement": "viability, T/C", "setting": "second compound 3 µM, first compound 0.00316 µM", "value": 11.6, "unit": "%"},
      {"measurement": "viability, T/C", "setting": "second compound 3 µM, first compound 0.01 µM", "value": 9.65, "unit": "%"},
      {"measurement": "viability, T/C", "setting": "[21]", "value": 9.98, "unit": "%"},
      {"measurement": "viability, T/C", "setting": "[22]", "value": 9.21, "unit": "%"},
      {"measurement": "viability, T/C", "setting": "[23]", "value": 12.1, "unit": "%"},
      {"measurement": "viability, T/C", "setting": "[24]", "value": 12.5, "unit": "%"}
    ]}
  ]
}
